From patent publication US11312726B2, “Thienodiazepine derivatives and application thereof” (priority 2017, dated 2022)

Key:
BRD4-BD1 = BRD4-BD1 (Homo sapiens (Human), UniProt O60885); experiment: BRD4 biochemical activity test (TR-FRET), BD1; details: read-out: BRD4 Binding (BD1), IC50
From the text: (§1) BRD4 Biochemical Activity Test
(§2) 1) BRD4-BD1 and BRD4-BD2 proteins of BPS Company, polypeptide of ANASPEC Company, and test reagent of PerkinElmer Company were used in the experiments;
(§3) 2) The TR-FRET experimental principle was used in the experiment to screen compounds.
(§4) 3) Relevant control compounds
(§5) 1) Preparation of the Compound Plate:
(§6) Preparation of the compound plate in the experiment was achieved by Echo:
(§7) 2) Preparation of Reaction Reagents:
(§8) Relevant reaction reagents should be prepared on the day of the experiment:
(§9) a) Formulation of 1× assay buffer;
(§10) b) Formulation of 3× component solution for the experiment: […]
(§11) 1. The reagent was taken out and placed on ice to naturally melt for later use;
(§12) 2. “Solution A” (protein solution), “solution B” (polypeptide solution), and “solution C” (test reagent solution) used in the experiment were formulated with the 1× assay buffer, and during the formation of the 3× solution from the components used in the experiment reaction system, the amounts of solutions A, B and C must be enough for the required amounts in the experiment.
(§13) 3) Experimental Operation Steps:
(§14) The experiment plate was a plate that contained a gradient concentration of the compound and a corresponding DMSO solution and was prepared with ECHO before the experiment:
(§15) a) The experiment plate was taken out, and 5 μL/well of “solution A” (protein solution) was added to columns 2-23 of the experiment plate, then 5 μL/well of 1× assay buffer was added to columns 1 and 24 of the experiment plate, and columns 1 and 24 were used as Min control in the experiment system;
(§16) b) Centrifugation at 1000 rpm was carried out for 30 seconds;
(§17) c) The plate was incubated at 23° C. for 20 minutes;
(§18) d) After 20 minutes of incubation, 5 μL/well of “solution B” (polypeptide solution) was added to columns 1-24 of the experiment plate;
(§19) e) Centrifugation at 1000 rpm was carried out for 30 seconds;
(§20) f) The plate was incubated at 23° C. for 20 minutes;
(§21) g) After 20 minutes of incubation, 5 μL/well of “solution C” (test reagent solution) was added to columns 1-24 of the experiment plate;
(§22) h) Centrifugation at 1000 rpm was carried out for 30 seconds;
(§23) i) The plate was incubated at 23° C. for 40 minutes;
(§24) j) The experiment plate was placed on EnVision to read the plate.
(§25) a) The corresponding Max control and Min control of each experiment plate were used to convert to the Z′ value of the experiment plate, and the Z′ value of each plate was ensured to be >0.5;
(§26) b) The IC50 value was calculated from the signal of the control compound by XLFIT5, and ensured to be maintained within 3 times of the average value of historical data.

BRD4-BD2 = BRD4-BD2 (Homo sapiens (Human), UniProt O60885); experiment: BRD4 biochemical activity test (TR-FRET), BD2; details: read-out: BRD4 Binding (BD2), IC50
From the text: as §1, §2, §3, §4, §5, §6, §7, §8, §9, §10, §11, §12, §13, §14, §15, §16, §17, §18, §19, §20, §21, §22, §23, §24, §25, §26

[1] = tested on: Human prostatic cancer PC-3 cell subcutaneous xenograft tumor; experiment: In vivo pharmacodynamics, PC-3 subcutaneous xenograft tumor model; details: 50 mg/kg PO BID × 21 days
Method: In Vivo Pharmacodynamics Study of Compound 32 on Human Prostatic Cancer PC-3 Cell Subcutaneous Xenograft Tumor Model
The formulation method of the test substance was the same as in Table 2, and the animal grouping and the dosage regimen were the same as in Table 3.
Strain: BALB/c nude mouse
Week-age and weight: 6-8 weeks of age, 18-22 grams of body weight
Supplier: Shanghai Sippr-BK laboratory animal Co. Ltd.
(§27) 3. Experiment Methods and Steps
Human prostatic cancer PC-3 cells were cultured in monolayer in vitro, and the culture conditions were F-12K culture medium (supplier: Gibco; article number: 21127-022; manufacturing batch number: 1868870) with 10% fetal bovine serum, 100 U/mL penicillin and 100 μg/mL streptomycin. The culture was performed at 37° C. in 5% CO2. Conventional digestion treatment with pancreatin-EDTA for passage was carried out twice a week. When the cells were in the exponential growth phase, the cells were harvested, counted, and inoculated.
(§28) 3.2 Tumor Cell Inoculation
0.1 mL of 10×10^6 PC-3 cells were subcutaneously inoculated into the right-back of each nude mouse. The grouping and administration was started when the average tumor volume reached 100-150 mm^3.
3.3 Tumor Measurement, Experiment Indices, and Statistical Analysis were the Same as MDA-MB-231 Model

[2] = tested on: MC38 mouse colon cancer cell transplantation tumor; experiment: In vivo anti-tumor effect, MC38 mouse colon cancer transplantation tumor model; details: for relative tumor proliferation rate T/C / tumor growth inhibition rate TGI: 20th day after administration
Method: In Vivo Anti-Tumor Effect of Compound 32 in MC38 Mouse Colon Cancer Cell Animal Transplantation Tumor Model
Week-age and weight: 6-7 weeks of age, 16-20 grams of body weight
Supplier: Shanghai SLAC Laboratory Animal Co., Ltd.
as §27
Mouse colon cancer MC38 cells (OBiO Technology (Shanghai) Corp., Ltd.) were cultured in monolayer in vitro, and the culture conditions were DMEM culture medium (Gibco; article number: 12100) with 10% fetal bovine serum. The culture was performed at 37° C. in 5% CO2 in an incubator. Conventional digestion treatment with 0.25% pancreatin-EDTA for passage was carried out. When the cells were in the exponential growth phase and the saturation was 80%-90%, the cells were harvested, counted, and inoculated.
as §28
0.1 mL of 2×10^5 MC38 cells were subcutaneously inoculated into the right-back of each mouse. The random grouping and administration was carried out according to the tumor volume when the average tumor volume reached about 70 mm^3.
Tumor diameter was measured twice a week with vernier calipers. The equation for calculating tumor volume was V=0.5×a×b^2, wherein a and b represented the major and minor diameters of the tumor, respectively.
The tumor inhibition effect of the compound was evaluated by TGI (%) or relative tumor proliferation rate T/C (%). Relative tumor proliferation rate T/C (%)=TRTV/CRTV×100% (TRTV: RTV of the treatment group; CRTV: RTV of the negative control group). The relative tumor volume (RTV) was calculated according to the results of the tumor measurement. The calculation equation was RTV=Vt/V0, where V0 was the average tumor volume measured at the grouping and administration (i.e. D0), and Vt was the average tumor volume at the time of a certain measurement. TRTV and CRTV were obtained from the data on the same day.
TGI (%) reflected the tumor growth inhibition rate.
At the end of the experiment, the tumor weight would be measured and the Tweight/Cweight percentage would be calculated. Tweight and Cweight represented the tumor weights of the administration group and the medium control group, respectively.
Statistical analysis was performed using SPSS software based on the tumor volume and the tumor weight at the end of the experiment. The comparison between two groups was analyzed by t-test, and the comparison between three or more groups was analyzed by one-way ANOVA.

[3] = each administration group (15, 25, 50 mg/kg)

With `Cc1sc2c(c1C)C(c1ccc(Cl)cc1)=N[C@@H](CC(=O)Nc1ccc3c(c1)COC3=O)c1nnc(C)n1-2` [Compound 32] the IC50 (BRD4-BD1) was 66 nM, the IC50 (BRD4-BD2) was 10 nM and the “tolerance of the animals” value [1] was “well tolerated”. The “tumor inhibition effect compared with solvent control” value ([1]; 21st day) was “significant tumor inhibition effect”, the “relative tumor proliferation rate T/C” value ([1]; 21st day after administration) was 44.63% and the “tumor growth inhibition rate TGI” value ([1]; 21st day after administration) was 58.4%. For the same compound, the “relative tumor proliferation rate T/C” value ([2]; 15 mg/kg p.o. BID × 20 days) was 33.68%, the “tumor growth inhibition rate TGI” value ([2]; 15 mg/kg p.o. BID × 20 days) was 68.81% and the “relative tumor proliferation rate T/C” value ([2]; 25 mg/kg p.o. BID × 20 days) was 27.59%. The “tumor growth inhibition rate TGI” value ([2]; 25 mg/kg p.o. BID × 20 days) was 75.21%, the “relative tumor proliferation rate T/C” value ([2]; 50 mg/kg p.o. BID × 20 days) was 10.04% and the “tumor growth inhibition rate TGI” value ([2]; 50 mg/kg p.o. BID × 20 days) was 93.46%. For the same compound, the “tolerance of the animals” value [2, 3] was “good tolerance” and the “tumor inhibition effect (in words)” value [2, 3] was “Significant tumor inhibition effects”.
